Data set [1] concerns Escherichia coli ATCC 25922. The format is cell-based. As to conditions: ATCC 25922. Put shortly:
(§1)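 Peptides are tested in serial two-fold dilutions against about 10^6 CFU/mL in MH-II broth containing 0.002% P-80 (v/v, final). Plates incubate 18-20 h at 35° C, and the MIC is the lowest peptide level (μg/mL) showing no visible growth.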

In data set [2] the test system is Klebsiella pneumoniae SSI #3010. The format is cell-based. As to conditions: SSI #3010. Put shortly: as §1
Data set [3] has as its system Acinetobacter baumannii DSM 30008. The format is cell-based. As to conditions: DSM 30008. Put shortly:
as §1

For data set [4], the system named is Klebsiella pneumoniae 968733. The format is cell-based. As to conditions: 968733. The procedure, abridged: as §1
Data set [5] deals with Acinetobacter baumannii 872842. The format is cell-based. As to conditions: 872842. The procedure, abridged:
as §1

For the next data set, the system named is Escherichia coli 926415. The format is cell-based. As to conditions: 926415. Put shortly: as §1
Data set [6] relates to Pseudomonas aeruginosa ATCC 27853. The format is cell-based. As to conditions: ATCC 27853. The procedure, abridged:
as §1

Data set [7] relates to Enterobacter cloacae 848840. The format is cell-based. As to conditions: 848840. Put shortly:
as §1

The test system of a further data set is male ICR mice. In words: Tolerability in a mouse model (Maximum Tolerated Dose assay). The format is in vivo. As to conditions: 2 × 40 mg/kg s.c. at a 12-hr interval, groups of 3. Put shortly:
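Groups of 3 male ICR mice weighing 23±3 g received two subcutaneous doses, 12 h apart, of 30 or 40 mg/kg in saline adjusted to pH 6.5-7.6. Observation for 30 min after each dose covered autonomic effects and acute toxicity, including death.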

Data set [8] concerns human red blood cells (hRBC). In words: Hemolysis. The format is cell-based. As to conditions: red cells of human, 1 h, 200. The procedure, abridged: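 hRBC washed 4× in PBS; 200 μg/mL peptide + 20% (v/v) hRBC, 1 h, 37° C, 300 rpm. Spin, supernatant ~7.5-fold diluted, OD540 blank corrected. % hemolysis = OD540 peptide / OD540 Triton X-100 × 100.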

Structures are written as SMILES. Converted amounts (≈) assume the structure as drawn. Where a SMILES comes first, the peptide text is derived from it. Bridges are numbered along the chain shown (N, C = ends). Roman numbers before positions name the chains, in order. [ ]: non-standard residue; d: D form. dDab = NCC[C@@H](N)C(=O)O; Dab = NCC[C@H](N)C(=O)O; Abu = CC[C@H](N)C(=O)O; Dap = NC[C@H](N)C(=O)O A value given as a limit tells only on which side of the number the result lay.

The values that follow come from US11629171B2, “Beta-hairpin peptidomimetics” (POLYPHOR AG, priority 2017, dated 2023).

In the case of `CC[C@@H]1NC(=O)[C@@H](CC(C)C)NC(=O)[C@H](CCN)NC(=O)[C@@H](NC(=O)[C@H](CN)NC(=O)[C@@H](NC(=O)[C@H](CCN)NC(=O)CC[C@@H]2NC(=O)[C@H](CCN)NC(=O)[C@H](Cc3ccc(O)cc3)NC(=O)[C@@H](NC(=O)[C@@H](NC(C)=O)C(C)C)CSSC[C@@H](C(=O)N[C@@H](CO)C(N)=O)NC(=O)[C@H](C(C)C)NC(=O)[C@H](CCN)NC(=O)[C@H](Cc3c[nH]c4ccccc34)NC(=O)[C@H](CO)NC(=O)[C@@H](CCN)NC2=O)[C@@H](C)O)CCNC(=O)[C@H]([C@@H](C)O)NC(=O)[C@H](CCN)NC(=O)[C@H](CCN)NC1=O` [Ex. 300] (I: Ac-VCY[Dab]E[dDab]SW[Dab]VCS-NH2 / II: [Dab]T[Dap][Dab][Dab][dL][Abu][Dab][Dab]T; disulfide I:2-I:11; amide I:5-II:N; lactam II:4-II:C), the “Escherichia coli ATCC 25922 MIC” value in data set [1] turned out to be 0.125 µg/mL. For the same compound, the “Klebsiella pneumoniae SSI #3010 MIC” value in [2] came out at 0.0625 µg/mL. Moreover, the “Acinetobacter baumannii DSM 30008 MIC” value in data set [3] was 0.125 µg/mL. The MIC (commonly the lowest concentration that inhibits growth of the organism) in [4] turned out to be 2 µg/mL (≈ 0.839 µM); in data set [5], 1 µg/mL (≈ 0.419 µM); in the data set with Escherichia coli 926415, 0.25 µg/mL (≈ 0.105 µM); in data set [7] it was 0.125 µg/mL (≈ 0.0524 µM). For the same compound, the “Pseudomonas aeruginosa ATCC 27853 MIC” value in data set [6] came to 0.125 µg/mL. For the same compound, the Mortality and dose in the data set on male ICR mice is reported as 0/3 died at 2 × 40 mg/kg. Moreover, the “Hemolysis at 200 μg/mL” value in [8] is below 1%.
For `CC(=O)N[C@H](C(=O)N[C@H]1CSSC[C@@H](C(=O)N[C@@H](CO)C(N)=O)NC(=O)[C@H](C(C)C)NC(=O)[C@H](CO)NC(=O)[C@H](Cc2c[nH]c3ccccc23)NC(=O)[C@H](CCC(=O)N[C@@H](CCN)C(=O)N[C@H](C(=O)N[C@@H](CN)C(=O)N[C@H]2CCNC(=O)[C@H]([C@@H](C)O)NC(=O)[C@H](CCN)NC(=O)[C@H](CCN)NC(=O)[C@H](CC(C)C)NC(=O)[C@@H](CC(C)C)NC(=O)[C@H](CCN)NC2=O)[C@@H](C)O)NC(=O)[C@@H](CCN)NC(=O)[C@H](Cc2c[nH]cn2)NC(=O)[C@H](CO)NC(=O)[C@H](Cc2ccc(O)cc2)NC1=O)C(C)C` [Ex. 358] (I: Ac-VCYSH[dDab]EWSVCS-NH2 / II: [Dab]T[Dap][Dab][Dab][dL]L[Dab][Dab]T; disulfide I:2-I:11; amide I:7-II:N; lactam II:4-II:C), the “Escherichia coli ATCC 25922 MIC” value in data set [1] was 0.03125 µg/mL. Moreover, the “Klebsiella pneumoniae SSI #3010 MIC” value in data set [2] is 0.125 µg/mL. Also, the “Acinetobacter baumannii DSM 30008 MIC” value in data set [3] worked out at 0.03125 µg/mL. In addition, the MIC turned out to be 0.25 µg/mL (≈ 0.103 µM) in [4], 0.0625 µg/mL (≈ 0.0257 µM) in data set [5], 0.25 µg/mL (≈ 0.103 µM) against Escherichia coli 926415 and 0.125 µg/mL (≈ 0.0513 µM) in data set [7]. Further, the “Pseudomonas aeruginosa ATCC 27853 MIC” value in [6] is 0.125 µg/mL. Besides, in the data set on male ICR mice, the Mortality and dose is 0/3 died at 2 × 40 mg/kg. Besides, in data set [8], the “Hemolysis at 200 μg/mL” value amounted to 1%.
For the compound `CC(=O)N[C@H](C(=O)N[C@H]1CSSC[C@@H](C(=O)N[C@@H](CO)C(N)=O)NC(=O)[C@H](C(C)C)NC(=O)[C@H](CO)NC(=O)[C@H](Cc2c[nH]c3ccccc23)NC(=O)CNC(=O)[C@@H](CCN)NC(=O)[C@H](CCC(=O)N[C@@H](CCN)C(=O)N[C@H](C(=O)N[C@@H](CN)C(=O)N[C@H]2CCNC(=O)[C@H]([C@@H](C)O)NC(=O)[C@H](CCN)NC(=O)[C@H](CCN)NC(=O)[C@H](CC(C)C)NC(=O)[C@@H](CC(C)C)NC(=O)[C@H](CCN)NC2=O)[C@@H](C)O)NC(=O)[C@H](CCN)NC(=O)[C@H](Cc2ccc(O)cc2)NC1=O)C(C)C` [Ex. 350] (I: Ac-VCY[Dab]E[dDab]GWSVCS-NH2 / II: [Dab]T[Dap][Dab][Dab][dL]L[Dab][Dab]T; disulfide I:2-I:11; amide I:5-II:N; lactam II:4-II:C), the “Escherichia coli ATCC 25922 MIC” value in [1] came out at 0.03125 µg/mL. In addition, the “Klebsiella pneumoniae SSI #3010 MIC” value in data set [2] was found to be 0.125 µg/mL. The “Acinetobacter baumannii DSM 30008 MIC” value in [3] came to 0.03125 µg/mL. Besides, the MIC in data set [4] came out at 0.125 µg/mL (≈ 0.0528 µM); in [5], 0.0625 µg/mL (≈ 0.0264 µM); in the data set with Escherichia coli 926415, 0.125 µg/mL (≈ 0.0528 µM); in [7] it was 0.125 µg/mL (≈ 0.0528 µM). Further, the “Pseudomonas aeruginosa ATCC 27853 MIC” value in data set [6] was found to be 0.125 µg/mL. The Mortality and dose with male ICR mice is given as 0/3 died at 2 × 40 mg/kg. Also, the “Hemolysis at 200 μg/mL” value in data set [8] is listed as below 1%.
